Test results reported in patent US10183950B2, “Thienopyrimidine inhibitors of atypical protein kinase C” (Cancer Research Technology Limited, priority 2011, dated 2019).

Molecular target: T1, kinase-domain human PKCι (Homo sapiens, UniProt P41743)
T1 construct: Recombinant, kinase-domain human PKCι is expressed and purified in-house; made in house
T1 sequence (P41743 254-522 limits assumed): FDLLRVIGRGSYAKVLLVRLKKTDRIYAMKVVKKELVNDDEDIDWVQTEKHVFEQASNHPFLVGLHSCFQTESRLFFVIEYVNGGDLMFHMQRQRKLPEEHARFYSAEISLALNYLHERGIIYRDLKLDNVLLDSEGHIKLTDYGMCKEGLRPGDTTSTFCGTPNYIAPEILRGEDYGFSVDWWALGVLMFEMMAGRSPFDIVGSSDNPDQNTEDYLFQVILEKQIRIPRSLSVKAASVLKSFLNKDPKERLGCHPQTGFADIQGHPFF
Experiment: PKCι IC50 IMAP fluorescence polarisation assay, kinase-domain enzyme
Assay type: biochemical
Conditions: kinase domain PKCi at 2 μM ATP; read-out: IC50 in IMAP assay against kinase domain PKCi (Activity)
Protocol: Assays are based on the ability of PKCι to phosphorylate a commercially available peptide substrate in vitro. […] Recombinant, full-length human PKCι expressed in Sf21 insect cells is also commercially available. Recombinant, kinase-domain human PKCι is expressed and purified in-house.
The procedure below explains how dose response curves for inhibitors of PKCι are obtained.
Compounds to be tested are dissolved in 100% DMSO. […] 1 μl is plated into 384 well black low-binding flat bottomed assay plates which are used immediately. Dilutions and additions of compound to assay plates are carried out using Matrix WellMate® and Matrix PlateMate® Plus liquid handling systems.
The final concentration of peptide substrate in the assay is 100 nM. […] Relevant controls are included, namely no compound and no enzyme. […] The reaction is allowed to incubate for 60 minutes at room temperature, before the reaction is stopped and developed by the addition of 20 μl IMAP™ development reagent (Molecular Devices). IMAP development reagent consists of 0.25% (v/v) IMAP progressive binding reagent, 17% (v/v) IMAP progressive binding buffer A and 3% (v/v) IMAP progressive binding buffer B. The plates are then incubated for 2 hours at room temperature before being read using an appropriate plate reader, for example a Molecular Devices HT Analyst or a BMG Pherastar.

| Compound | IC50 [µM] |
| --- | --- |
| Brc1ccc(CN2CCN(c3nc(-c4ccncc4)nc4sc5c(c34)CCCC5)CC2)cc1 [compound 117, 4-[4-(4-Bromo-benzyl)-piperazin-1-yl]-2-pyridin-4-yl-5,6,7,8-tetrahydro-benzo[4,5]thieno[2,3-d]pyrimidine] | 10 to 40 |
| c1ccc(CN2CCN(c3nc(-c4ccncc4)nc4sc5c(c34)CCCC5)CC2)nc1 [compound 120, 2-Pyridin-4-yl-4-(4-pyridin-2-ylmethyl-piperazin-1-yl)-5,6,7,8-tetrahydro-benzo[4,5]thieno[2,3-d]pyrimidine] | 10 to 40 |
| FC(F)(F)c1ccc(CN2CCN(c3nc(-c4ccncc4)nc4sc5c(c34)CCCC5)CC2)cc1 [compound 121, 2-Pyridin-4-yl-4-[4-(4-trifluoromethyl-benzyl)-piperazin-1-yl]-5,6,7,8-tetrahydro-benzo[4,5]thieno[2,3-d]pyrimidine] | 10 to 40 |
| Clc1ccc(CN2CCN(c3nc(-c4ccncc4)nc4sc5c(c34)CCCC5)CC2)cc1 [compound 122, 4-[4-(4-Chloro-benzyl)-piperazin-1-yl]-2-pyridin-4-yl-5,6,7,8-tetrahydro-benzo[4,5]thieno[2,3-d]pyrimidine] | 10 to 40 |
| Clc1ccccc1CN1CCN(c2nc(-c3ccncc3)nc3sc4c(c23)CCCC4)CC1 [compound 123, 4-[4-(2-Chloro-benzyl)-piperazin-1-yl]-2-pyridin-4-yl-5,6,7,8-tetrahydro-benzo[4,5]thieno[2,3-d]pyrimidine] | 10 to 40 |
| Clc1cccc(CN2CCN(c3nc(-c4ccncc4)nc4sc5c(c34)CCCC5)CC2)c1 [compound 124, 4-[4-(3-Chloro-benzyl)-piperazin-1-yl]-2-pyridin-4-yl-5,6,7,8-tetrahydro-benzo[4,5]thieno[2,3-d]pyrimidine] | 10 to 40 |
| Oc1cccc(CN2CCN(c3nc(-c4ccncc4)nc4sc5c(c34)CCCC5)CC2)c1 [compound 126, 3-[4-(2-Pyridin-4-yl-5,6,7,8-tetrahydro-benzo[4,5]thieno[2,3-d]pyrimidin-4-yl)-piperazin-1-ylmethyl]-phenol] | 10 to 40 |
| Brc1cccc(CN2CCN(c3nc(-c4ccncc4)nc4sc5c(c34)CCCC5)CC2)c1 [compound 127, 4-[4-(3-Bromo-benzyl)-piperazin-1-yl]-2-pyridin-4-yl-5,6,7,8-tetrahydro-benzo[4,5]thieno[2,3-d]pyrimidine] | 10 to 40 |
| Brc1ccc(CN2CCN(c3nc(-c4ccncc4)nc4sc5c(c34)CCCC5)CC2)cn1 [compound 128, 4-[4-(6-Bromo-pyridin-3-ylmethyl)-piperazin-1-yl]-2-pyridin-4-yl-5,6,7,8-tetrahydro-benzo[4,5]thieno[2,3-d]pyrimidine] | 10 to 40 |
| CCCCN1CCN(c2nc(-c3ccncc3)nc3sc4c(c23)CCCC4)CC1 [compound 129, 4-(4-Butyl-piperazin-1-yl)-2-pyridin-4-yl-5,6,7,8-tetrahydro-benzo[4,5]thieno[2,3-d]pyrimidine] | 10 to 40 |
| c1cncc(CN2CCN(c3nc(-c4ccncc4)nc4sc5c(c34)CCCC5)CC2)c1 [compound 130, 2-Pyridin-4-yl-4-(4-pyridin-3-ylmethyl-piperazin-1-yl)-5,6,7,8-tetrahydro-benzo[4,5]thieno[2,3-d]pyrimidine] | 10 to 40 |
| Brc1cnccc1CN1CCN(c2nc(-c3ccncc3)nc3sc4c(c23)CCCC4)CC1 [compound 131, 4-[4-(3-Bromo-pyridin-4-ylmethyl)-piperazin-1-yl]-2-pyridin-4-yl-5,6,7,8-tetrahydro-benzo[4,5]thieno[2,3-d]pyrimidine] | 10 to 40 |
| c1ccc(CCN2CCN(c3nc(-c4ccncc4)nc4sc5c(c34)CCCC5)CC2)cc1 [compound 132, 4-(4-Phenethyl-piperazin-1-yl)-2-pyridin-4-yl-5,6,7,8-tetrahydro-benzo[4,5]thieno[2,3-d]pyrimidine] | 10 to 40 |
| CCCN1CCN(c2nc(-c3ccncc3)nc3sc4c(c23)CCCC4)CC1 [compound 133, 4-(4-Propyl-piperazin-1-yl)-2-pyridin-4-yl-5,6,7,8-tetrahydro-benzo[4,5]thieno[2,3-d]pyrimidine] | 10 to 40 |
| CC(C)CN1CCN(c2nc(-c3ccncc3)nc3sc4c(c23)CCCC4)CC1 [compound 134, 4-(4-Isobutyl-piperazin-1-yl)-2-pyridin-4-yl-5,6,7,8-tetrahydro-benzo[4,5]thieno[2,3-d]pyrimidine] | 10 to 40 |

Other lines, results leading:

| IC50 [µM] | Compound |
| --- | --- |
| 0.1 to 1 | C[C@@H](N)CNc1nc(-c2ccncc2)nc2sc3c(c12)CCCCC3 [compound 89, (R)-N*1*-(2-Pyridin-4-yl-6,7,8,9-tetrahydro-5H-10-thia-1,3-diaza-benzo[a]azulen-4-yl)-propane-1,2-diamine] |
| 1 to 10 | Cc1sc2nc(-c3ccncc3)nc(NCCN)c2c1-c1ccccc1 [compound 91, N*1*-(6-Methyl-5-phenyl-2-pyridin-4-yl-thieno[2,3-d]pyrimidin-4-yl)-ethane-1,2-diamine] |
| 1 to 10 | Cc1sc2nc(-c3ccncc3)nc(N3CCCNCC3)c2c1-c1ccccc1 [compound 92, 4-[1,4]Diazepan-1-yl-6-methyl-5-phenyl-2-pyridin-4-yl-thieno[2,3-d]pyrimidine] |
| 1 to 10 | Brc1ccc(-c2csc3nc(-c4ccncc4)nc(N4CCCNCC4)c23)cc1 [compound 93, 5-(4-Bromo-phenyl)-4-[1,4]diazepan-1-yl-2-pyridin-4-yl-thieno[2,3-d]pyrimidine] |
| < 0.1 | Cc1csc2nc(-c3ccncc3)nc(N3CCNCC3)c12 [compound 94, 5-Methyl-4-piperazin-1-yl-2-pyridin-4-yl-thieno[2,3-d]pyrimidine] |
| 0.1 to 1 | Cc1csc2nc(-c3ccncc3)nc(N3CCCNCC3)c12 [compound 95, 4-[1,4]Diazepan-1-yl-5-methyl-2-pyridin-4-yl-thieno[2,3-d]pyrimidine] |
| 1 to 10 | NCCNc1nc(-c2ccncc2F)nc2sc3c(c12)CCCC3 [compound 97, N*1*-[2-(3-fluoro-pyridin-4-yl)-5,6,7,8-tetrahydro-benzo[4,5]thieno [2,3-d]pyrimidin-4-yl]-ethane-1,2-diamine] |
| 10 to 40 | NCCNc1nc(-c2ccnc(F)c2)nc2sc3c(c12)CCCC3 [compound 98, N*1*-[2-(2-Fluoro-pyridin-4-yl)-5,6,7,8-tetrahydro-benzo[4,5]thieno[2,3-d]pyrimidin-4-yl]-ethane-1,2-diamine] |
| 1 to 10 | C[C@H](N)CNc1nc(-c2ccncc2F)nc2sc3c(c12)CCCC3 [compound 99, (S)-N*1*-[2-(3-Fluoro-pyridin-4-yl)-5,6,7,8-tetrahydro-benzo[4,5]thieno[2,3-d]pyrimidin-4-yl]-propane-1,2-diamine] |
| 1 to 10 | C[C@@H](N)CNc1nc(-c2ccncc2F)nc2sc3c(c12)CCCC3 [compound 100, (R)-N*1*-[2-(3-Fluoro-pyridin-4-yl)-5,6,7,8-tetrahydro-benzo[4,5]thieno[2,3-d]pyrimidin-4-yl]-propane-1,2-diamine] |
| 10 to 40 | c1ccc(CN2CCN(c3nc(-c4ccncc4)nc4sc5c(c34)CCCC5)CC2)cc1 [compound 116, 4-(4-Benzyl-piperazin-1-yl)-2-pyridin-4-yl-5,6,7,8-tetrahydro-benzo[4,5]thieno[2,3-d]pyrimidine] |
| 1 to 10 | c1cc(CN2CCN(c3nc(-c4ccncc4)nc4sc5c(c34)CCCC5)CC2)ccn1 [compound 118, 2-Pyridin-4-yl-4-(4-pyridin-4-ylmethyl-piperazin-1-yl)-5,6,7,8-tetrahydro-benzo[4,5]thieno[2,3-d]pyrimidine] |
| 1 to 10 | CCN1CCN(c2nc(-c3ccncc3)nc3sc4c(c23)CCCC4)CC1 [compound 119, 4-(4-Ethyl-piperazin-1-yl)-2-pyridin-4-yl-5,6,7,8-tetrahydro-benzo[4,5]thieno[2,3-d]pyrimidine] |
| 1 to 10 | CN1CCN(c2nc(-c3ccncc3)nc3sc4c(c23)CCCC4)CC1 [compound 125, 4-(4-Methyl-piperazin-1-yl)-2-pyridin-4-yl-5,6,7,8-tetrahydro-benzo[4,5]thieno[2,3-d]pyrimidine] |
| 1 to 10 | CN(C)CCOc1nc(-c2ccncc2)nc2sc3c(c12)CCCC3 [compound 135, dimethyl-[2-(2-pyridin-4-yl-5,6,7,8-tetrahydro-benzo[4,5]thieno[2,3-d]pyrimidin-4-yloxy)-ethyl]-amine] |
| 0.1 to 1 | NCCOc1nc(-c2ccncc2)nc2sc3c(c12)CCCC3 [compound 136] |
| 1 to 10 | CNCCOc1nc(-c2ccncc2)nc2sc3c(c12)CCCC3 [compound 137, Methyl-[2-(2-pyridin-4-yl-5,6,7,8-tetrahydro-benzo[4,5]thieno[2,3-d]pyrimidin-4-yloxy)-ethyl]-amine] |
| 1 to 10 | CC(C)C[C@H](N)COc1nc(-c2ccncc2)nc2sc3c(c12)CCCC3 [compound 138, (S)-3-Methyl-1-(2-pyridin-4-yl-5,6,7,8-tetrahydro-benzo[4,5]thieno[2,3-d]pyrimidin-4-yloxymethyl)-butylamine] |
